Tests used:
Experiment in all cases: scanMAX KINOMEscan (Eurofins)
Format in all cases: binding
[1] = biological target: ABL2 (Homo sapiens, UniProt P42684); settings: read-out: Percent Control
Excerpt: (§1) Supplement cb5c00097_si_002.xlsx, sheet "Table S6 (Eurofins Selectivity)" | column: Percent Control

[2] = biological target: ACVR2A (Homo sapiens, UniProt P27037); settings: read-out: Percent Control
Excerpt: as §1

[3] = biological target: ADCK4 (Homo sapiens, UniProt Q96D53); settings: 1000 nM, read-out: Percent Control
Excerpt: as §1

[4] = biological target: AKT2 (Homo sapiens, UniProt P31751); settings: read-out: Percent Control
Sequence of AKT2 (P31751 whole entry): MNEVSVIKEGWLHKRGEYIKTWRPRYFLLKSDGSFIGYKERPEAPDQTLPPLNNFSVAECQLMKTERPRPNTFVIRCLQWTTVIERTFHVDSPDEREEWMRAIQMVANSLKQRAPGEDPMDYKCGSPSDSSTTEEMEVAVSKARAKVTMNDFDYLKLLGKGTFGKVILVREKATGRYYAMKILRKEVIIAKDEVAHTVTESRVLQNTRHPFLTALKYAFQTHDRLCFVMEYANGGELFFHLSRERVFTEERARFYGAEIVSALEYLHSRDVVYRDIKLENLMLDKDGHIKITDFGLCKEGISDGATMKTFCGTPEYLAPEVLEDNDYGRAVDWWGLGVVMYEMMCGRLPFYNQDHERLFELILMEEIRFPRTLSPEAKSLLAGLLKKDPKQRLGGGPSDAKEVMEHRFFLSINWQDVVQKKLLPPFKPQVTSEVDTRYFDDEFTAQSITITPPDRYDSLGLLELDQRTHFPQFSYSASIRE
Excerpt: as §1

[5] = biological target: CAMK1B (Homo sapiens, UniProt Q6P2M8); settings: 1000 nM, read-out: Percent Control
Excerpt: as §1

[6] = biological target: CAMKK1 (Homo sapiens, UniProt Q8N5S9); settings: 1000 nM, read-out: Percent Control
Excerpt: as §1

[7] = biological target: CSNK1D (Homo sapiens, UniProt P48730); settings: 1000 nM, read-out: Percent Control
Excerpt: as §1

[8] = biological target: CSNK2A2 (Homo sapiens, UniProt P19784); settings: 1000 nM, read-out: Percent Control
Excerpt: as §1

[9] = biological target: DCAMKL3 (Homo sapiens, UniProt Q9C098); settings: read-out: Percent Control
Sequence of DCAMKL3 (Q9C098 whole entry): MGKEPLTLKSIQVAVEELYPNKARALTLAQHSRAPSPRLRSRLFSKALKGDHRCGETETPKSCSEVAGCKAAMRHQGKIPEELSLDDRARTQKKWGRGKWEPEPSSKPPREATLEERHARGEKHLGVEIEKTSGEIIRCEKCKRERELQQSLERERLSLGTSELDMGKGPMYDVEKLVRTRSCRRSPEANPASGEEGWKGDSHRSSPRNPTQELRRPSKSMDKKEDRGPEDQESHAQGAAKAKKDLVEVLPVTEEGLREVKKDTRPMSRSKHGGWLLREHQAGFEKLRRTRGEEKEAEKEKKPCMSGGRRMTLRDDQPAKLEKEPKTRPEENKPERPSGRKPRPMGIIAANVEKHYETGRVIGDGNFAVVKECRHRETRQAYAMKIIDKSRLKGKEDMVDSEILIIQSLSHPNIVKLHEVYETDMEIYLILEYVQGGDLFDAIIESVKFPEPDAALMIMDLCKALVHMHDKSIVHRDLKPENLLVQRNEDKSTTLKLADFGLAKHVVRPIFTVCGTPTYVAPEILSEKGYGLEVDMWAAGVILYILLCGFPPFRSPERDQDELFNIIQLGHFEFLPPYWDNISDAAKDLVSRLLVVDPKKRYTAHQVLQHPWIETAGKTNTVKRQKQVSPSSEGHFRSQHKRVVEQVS
Excerpt: as §1

[10] = biological target: DDR2 (Homo sapiens, UniProt Q16832); settings: 1000 nM, read-out: Percent Control
Excerpt: as §1

[11] = biological target: EPHA4 (Homo sapiens, UniProt P54764); settings: read-out: Percent Control
Sequence of EPHA4 (P54764 20-986): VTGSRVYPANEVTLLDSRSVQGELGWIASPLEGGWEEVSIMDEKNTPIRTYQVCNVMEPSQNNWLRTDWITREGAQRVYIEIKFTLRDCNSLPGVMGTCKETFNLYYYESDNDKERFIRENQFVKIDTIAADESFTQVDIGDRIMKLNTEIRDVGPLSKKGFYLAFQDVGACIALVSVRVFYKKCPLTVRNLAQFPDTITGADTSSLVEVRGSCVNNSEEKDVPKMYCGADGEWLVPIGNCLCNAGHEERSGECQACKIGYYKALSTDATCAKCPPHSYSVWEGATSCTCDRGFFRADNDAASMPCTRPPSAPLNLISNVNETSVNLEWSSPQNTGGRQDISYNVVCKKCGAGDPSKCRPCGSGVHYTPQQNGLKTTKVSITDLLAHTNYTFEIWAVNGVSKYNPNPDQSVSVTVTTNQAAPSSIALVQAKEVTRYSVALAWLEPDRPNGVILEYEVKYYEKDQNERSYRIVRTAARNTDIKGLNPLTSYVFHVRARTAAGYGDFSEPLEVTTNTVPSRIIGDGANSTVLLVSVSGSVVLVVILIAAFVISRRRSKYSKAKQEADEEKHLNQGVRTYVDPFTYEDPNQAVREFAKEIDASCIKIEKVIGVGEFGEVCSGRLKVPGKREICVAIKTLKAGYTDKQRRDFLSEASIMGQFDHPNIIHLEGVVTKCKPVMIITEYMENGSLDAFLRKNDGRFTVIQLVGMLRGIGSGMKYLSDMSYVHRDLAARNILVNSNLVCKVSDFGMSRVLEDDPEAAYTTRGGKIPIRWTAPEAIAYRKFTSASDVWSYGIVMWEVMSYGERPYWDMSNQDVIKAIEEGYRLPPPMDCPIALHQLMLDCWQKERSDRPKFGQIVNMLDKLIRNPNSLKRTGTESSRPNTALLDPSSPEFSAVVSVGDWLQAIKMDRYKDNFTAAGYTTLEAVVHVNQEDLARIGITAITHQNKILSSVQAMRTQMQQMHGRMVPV
Excerpt: as §1

[12] = biological target: EPHA5 (Homo sapiens, UniProt P54756); settings: 1000 nM, read-out: Percent Control
Excerpt: as §1

[13] = biological target: FLT4 (Homo sapiens, UniProt P35916); settings: 1000 nM, read-out: Percent Control
Excerpt: as §1

[14] = biological target: LOK (Homo sapiens, UniProt O94804); settings: 1000 nM, read-out: Percent Control
Excerpt: as §1

[15] = biological target: MAP3K3 (Homo sapiens, UniProt Q99759); settings: 1000 nM, read-out: Percent Control
Excerpt: as §1

[16] = biological target: MAP4K5 (Homo sapiens, UniProt Q9Y4K4); settings: 1000 nM, read-out: Percent Control
Excerpt: as §1

[17] = biological target: MAPKAPK2 (Homo sapiens, UniProt P49137); settings: 1000 nM, read-out: Percent Control
Excerpt: as §1

[18] = biological target: MKNK1 (Homo sapiens, UniProt Q9BUB5); settings: 1000 nM, read-out: Percent Control
Excerpt: as §1

[19] = biological target: MST4 (Homo sapiens, UniProt Q9P289); settings: 1000 nM, read-out: Percent Control
Excerpt: as §1

[20] = biological target: NEK3 (Homo sapiens, UniProt P51956); settings: 1000 nM, read-out: Percent Control
Excerpt: as §1

[21] = biological target: NEK6 (Homo sapiens, UniProt Q9HC98); settings: compound concentration 100 nM; Entrez NEK6; read-out: Percent Control
Excerpt: as §1

[22] = biological target: PAK6 (Homo sapiens, UniProt Q9NQU5); settings: compound concentration 100 nM; Entrez PAK6; read-out: Percent Control
Excerpt: as §1

[23] = biological target: PAK7 (Homo sapiens, UniProt Q9P286); settings: 1000 nM, read-out: Percent Control
Excerpt: as §1

[24] = biological target: PFTAIRE2 (Homo sapiens, UniProt Q96Q40); settings: 1000 nM, read-out: Percent Control
Excerpt: as §1

[25] = biological target: PIK3C2G (Homo sapiens, UniProt O75747); settings: 1000 nM, read-out: Percent Control
Excerpt: as §1

[26] = biological target: PIP5K1A (Homo sapiens, UniProt Q99755); settings: 1000 nM, read-out: Percent Control
Excerpt: as §1

[27] = biological target: PLK1 (Homo sapiens, UniProt P53350); settings: 1000 nM, read-out: Percent Control
Excerpt: as §1

[28] = biological target: PRKCD (Homo sapiens, UniProt Q05655); settings: compound concentration 100 nM; Entrez PRKCD; read-out: Percent Control
Excerpt: as §1

[29] = biological target: RAF1 (Homo sapiens, UniProt P04049); settings: compound concentration 100 nM; Entrez RAF1; read-out: Percent Control
Excerpt: as §1

[30] = biological target: S6K1 (Homo sapiens, UniProt P23443); settings: compound concentration 100 nM; Entrez RPS6KB1; read-out: Percent Control
Excerpt: as §1

[31] = biological target: TAK1 (Homo sapiens, UniProt O43318); settings: 1000 nM, read-out: Percent Control
Excerpt: as §1

[32] = biological target: TNK2 (Homo sapiens, UniProt Q07912); settings: read-out: Percent Control
Sequence of TNK2 (Q07912 whole entry): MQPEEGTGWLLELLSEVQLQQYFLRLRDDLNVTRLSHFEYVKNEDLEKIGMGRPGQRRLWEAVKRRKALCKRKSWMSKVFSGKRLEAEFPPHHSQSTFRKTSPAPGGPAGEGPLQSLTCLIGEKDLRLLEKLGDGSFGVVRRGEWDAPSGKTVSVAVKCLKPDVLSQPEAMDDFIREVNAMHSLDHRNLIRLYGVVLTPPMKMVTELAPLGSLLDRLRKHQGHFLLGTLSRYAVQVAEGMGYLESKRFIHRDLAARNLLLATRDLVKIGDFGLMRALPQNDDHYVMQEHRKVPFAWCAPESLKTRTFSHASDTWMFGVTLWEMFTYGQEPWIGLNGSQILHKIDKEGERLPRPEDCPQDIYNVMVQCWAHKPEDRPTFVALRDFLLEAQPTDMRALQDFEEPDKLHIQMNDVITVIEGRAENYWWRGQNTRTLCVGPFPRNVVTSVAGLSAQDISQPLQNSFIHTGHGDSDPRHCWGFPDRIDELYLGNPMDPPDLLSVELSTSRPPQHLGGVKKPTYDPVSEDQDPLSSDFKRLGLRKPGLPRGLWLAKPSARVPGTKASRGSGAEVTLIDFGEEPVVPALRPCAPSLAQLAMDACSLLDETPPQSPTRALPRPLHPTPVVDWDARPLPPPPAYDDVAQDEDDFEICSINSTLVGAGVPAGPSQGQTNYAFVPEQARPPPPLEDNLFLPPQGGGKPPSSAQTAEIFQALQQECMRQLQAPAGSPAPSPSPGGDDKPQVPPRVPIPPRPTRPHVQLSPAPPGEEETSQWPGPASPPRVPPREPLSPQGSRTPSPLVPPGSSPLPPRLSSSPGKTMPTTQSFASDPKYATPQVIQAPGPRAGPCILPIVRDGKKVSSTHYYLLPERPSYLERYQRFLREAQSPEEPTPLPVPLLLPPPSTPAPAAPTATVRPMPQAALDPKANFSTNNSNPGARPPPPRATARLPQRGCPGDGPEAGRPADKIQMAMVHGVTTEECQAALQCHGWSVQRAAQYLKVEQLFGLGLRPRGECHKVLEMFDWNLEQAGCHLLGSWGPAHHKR
Excerpt: as §1

[33] = biological target: TNNI3K (Homo sapiens, UniProt Q59H18); settings: 1000 nM, read-out: Percent Control
Excerpt: as §1

[34] = biological target: TRKC (Homo sapiens, UniProt Q16288); settings: 1000 nM, read-out: Percent Control
Excerpt: as §1

[35] = biological target: TSSK1B (Homo sapiens, UniProt Q9BXA7); settings: 1000 nM, read-out: Percent Control
Excerpt: as §1

[36] = biological target: TSSK3 (Homo sapiens, UniProt Q96PN8); settings: compound concentration 100 nM; Entrez TSSK3; read-out: Percent Control
Sequence of TSSK3 (Q96PN8 whole entry): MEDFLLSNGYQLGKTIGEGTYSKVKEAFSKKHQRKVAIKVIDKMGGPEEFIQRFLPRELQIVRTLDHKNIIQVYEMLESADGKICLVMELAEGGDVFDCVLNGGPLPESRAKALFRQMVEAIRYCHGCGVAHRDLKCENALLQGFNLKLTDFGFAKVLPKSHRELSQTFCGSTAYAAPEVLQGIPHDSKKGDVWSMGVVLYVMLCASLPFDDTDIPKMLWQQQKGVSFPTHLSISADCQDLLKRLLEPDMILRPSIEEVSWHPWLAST
Excerpt: as §1

[37] = biological target: ZAK (Homo sapiens, UniProt Q9NYL2); settings: compound concentration 100 nM; Entrez ZAK; read-out: Percent Control
Excerpt: as §1

Sequence of ACVR2A (P27037 20-513): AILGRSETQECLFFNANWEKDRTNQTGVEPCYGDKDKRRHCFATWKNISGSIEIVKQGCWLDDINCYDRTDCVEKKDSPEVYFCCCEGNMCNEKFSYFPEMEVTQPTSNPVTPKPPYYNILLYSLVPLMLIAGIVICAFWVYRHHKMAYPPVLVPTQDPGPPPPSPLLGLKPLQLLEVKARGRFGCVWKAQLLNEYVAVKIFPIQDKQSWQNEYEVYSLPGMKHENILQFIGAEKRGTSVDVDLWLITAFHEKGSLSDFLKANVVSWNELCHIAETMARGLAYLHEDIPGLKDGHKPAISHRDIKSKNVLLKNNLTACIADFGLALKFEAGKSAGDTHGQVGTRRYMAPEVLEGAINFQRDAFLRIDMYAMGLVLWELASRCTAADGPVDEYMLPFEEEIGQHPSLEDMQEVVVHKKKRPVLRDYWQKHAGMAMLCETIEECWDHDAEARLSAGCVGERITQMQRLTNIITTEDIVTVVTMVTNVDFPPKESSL
Sequence of ABL2 (P42684 whole entry): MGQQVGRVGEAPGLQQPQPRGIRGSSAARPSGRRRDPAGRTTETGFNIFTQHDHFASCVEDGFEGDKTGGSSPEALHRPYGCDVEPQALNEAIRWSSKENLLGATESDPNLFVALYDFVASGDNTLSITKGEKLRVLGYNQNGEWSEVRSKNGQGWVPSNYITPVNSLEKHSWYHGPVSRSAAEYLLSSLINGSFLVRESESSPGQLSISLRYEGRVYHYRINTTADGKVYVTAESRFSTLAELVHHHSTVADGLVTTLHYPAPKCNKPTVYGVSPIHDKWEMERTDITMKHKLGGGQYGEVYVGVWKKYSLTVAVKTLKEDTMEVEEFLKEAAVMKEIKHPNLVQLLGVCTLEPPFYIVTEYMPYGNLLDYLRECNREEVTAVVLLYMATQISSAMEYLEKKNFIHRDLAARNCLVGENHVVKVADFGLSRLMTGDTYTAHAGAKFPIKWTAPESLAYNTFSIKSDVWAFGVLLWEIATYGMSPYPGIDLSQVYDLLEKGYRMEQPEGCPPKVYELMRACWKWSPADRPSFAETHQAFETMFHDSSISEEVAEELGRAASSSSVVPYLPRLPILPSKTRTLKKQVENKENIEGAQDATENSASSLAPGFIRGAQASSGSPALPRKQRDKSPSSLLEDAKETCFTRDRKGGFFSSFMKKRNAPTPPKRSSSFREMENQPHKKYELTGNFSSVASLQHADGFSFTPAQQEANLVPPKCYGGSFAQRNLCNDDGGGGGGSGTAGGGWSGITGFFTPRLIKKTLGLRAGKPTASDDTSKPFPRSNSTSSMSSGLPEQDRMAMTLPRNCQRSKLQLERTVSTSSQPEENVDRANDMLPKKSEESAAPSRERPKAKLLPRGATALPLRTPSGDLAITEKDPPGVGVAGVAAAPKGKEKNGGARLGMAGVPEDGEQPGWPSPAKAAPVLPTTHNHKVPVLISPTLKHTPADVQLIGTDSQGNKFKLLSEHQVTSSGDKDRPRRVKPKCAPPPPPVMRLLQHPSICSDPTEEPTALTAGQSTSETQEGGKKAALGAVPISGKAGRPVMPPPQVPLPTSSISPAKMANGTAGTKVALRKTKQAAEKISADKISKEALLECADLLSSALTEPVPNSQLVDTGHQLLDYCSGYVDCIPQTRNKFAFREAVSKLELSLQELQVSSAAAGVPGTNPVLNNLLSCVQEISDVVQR

Question: For CN1C(=O)[C@@H](N2CCc3c(nn(Cc4ccccc4)c3C(N)=O)C2=O)COc2cc(Cl)ccc21 [Compound 10, (S)-2-benzyl-6-(8-chloro-5-methyl-4-oxo-2,3,4,5-tetrahydrobenzo[b][1,4]oxazepin-3-yl)-7-oxo-4,5,6,7-tetrahydro-2H-pyrazolo[3,4-c]pyridine-3-carboxamide], which remaining binding at 1 µM ([1]; 1000 nM) is on record?
Answer: 100%

Question: And the remaining binding at 0.1 µM ([1]; compound concentration 100 nM, Entrez ABL2)?
Answer: 100%

Question: What about the remaining binding at 1 µM ([2]; 1000 nM) of the same compound?
Answer: 100%

Question: What about the remaining binding at 0.1 µM ([2]; compound concentration 100 nM, Entrez ACVR2A) of the same compound?
Answer: 100%

Question: And the remaining binding at 1 µM [3]?
Answer: 80%

Question: And the remaining binding at 1 µM ([4]; 1000 nM)?
Answer: 100%

Question: And the remaining binding at 0.1 µM ([4]; compound concentration 100 nM, Entrez AKT2)?
Answer: 90%

Question: What about the remaining binding at 1 µM [5] of the same compound?
Answer: 91%

Question: And the remaining binding at 1 µM [6]?
Answer: 74%

Question: What about the remaining binding at 1 µM [7] of the same compound?
Answer: 87%

Question: And the remaining binding at 1 µM [8]?
Answer: 88%

Question: What about the remaining binding at 1 µM ([9]; 1000 nM) of the same compound?
Answer: 100%

Question: What about the remaining binding at 0.1 µM ([9]; compound concentration 100 nM, Entrez DCLK3) of the same compound?
Answer: 75%

Question: What about the remaining binding at 1 µM [10] of the same compound?
Answer: 86%

Question: And the remaining binding at 1 µM ([11]; 1000 nM)?
Answer: 100%

Question: And the remaining binding at 0.1 µM ([11]; compound concentration 100 nM, Entrez EPHA4)?
Answer: 99%

Question: And the remaining binding at 1 µM [12]?
Answer: 97%

Question: And the remaining binding at 1 µM [13]?
Answer: 92%

Question: And the remaining binding at 1 µM [14]?
Answer: 97%

Question: What about the remaining binding at 1 µM [15] of the same compound?
Answer: 94%

Question: What about the remaining binding at 1 µM [16] of the same compound?
Answer: 88%

Question: And the remaining binding at 1 µM [17]?
Answer: 64%

Question: What about the remaining binding at 1 µM [18] of the same compound?
Answer: 77%

Question: What about the remaining binding at 1 µM [19] of the same compound?
Answer: 92%

Question: And the remaining binding at 1 µM [20]?
Answer: 86%

Question: And the remaining binding at 0.1 µM [21]?
Answer: 78%

Question: What about the remaining binding at 0.1 µM [22] of the same compound?
Answer: 93%

Question: And the remaining binding at 1 µM [23]?
Answer: 91%

Question: And the remaining binding at 1 µM [24]?
Answer: 90%

Question: And the remaining binding at 1 µM [25]?
Answer: 84%

Question: And the remaining binding at 1 µM [26]?
Answer: 69%

Question: And the remaining binding at 1 µM [27]?
Answer: 73%

Question: And the remaining binding at 0.1 µM [28]?
Answer: 83%

Question: What about the remaining binding at 0.1 µM [29] of the same compound?
Answer: 100%

Question: What about the remaining binding at 0.1 µM [30] of the same compound?
Answer: 76%

Question: And the remaining binding at 1 µM [31]?
Answer: 82%

Question: And the remaining binding at 1 µM ([32]; 1000 nM)?
Answer: 98%

Question: And the remaining binding at 0.1 µM ([32]; compound concentration 100 nM, Entrez TNK2)?
Answer: 89%

Question: And the remaining binding at 1 µM [33]?
Answer: 80%

Question: What about the remaining binding at 1 µM [34] of the same compound?
Answer: 64%

Question: What about the remaining binding at 1 µM [35] of the same compound?
Answer: 82%

Question: What about the remaining binding at 0.1 µM [36] of the same compound?
Answer: 100%

Question: And the remaining binding at 0.1 µM [37]?
Answer: 89%

Reference: article PMC12090182, “Repurposing of the RIPK1-Selective Benzo[1,4]oxazepin-4-one Scaffold for the Development of a Type III LIMK1/2 Inhibitor” (ACS Chemical Biology, 2025)
